Reference: ChEMBL document CHEMBL1136096, “Design and biological evaluation of novel antioxidants containing N-t-Butyl-N-hydroxylaminophenyl moieties” (Bioorg Med Chem Lett, 2003)

Legend:
Type in all cases: functional
Gerbillinae [1] = assay: In vitro inhibitory activity against lipid peroxidation in gerbils
Gerbillinae [2] = assay: In vivo neuroprotective activity in gerbils (neuronal cell survival) after ischemic injury
Gerbillinae [3] = assay: In vivo neuroprotective activity in gerbils (neuronal cell survival) before ischemic injury

SMILES | IC50 (Gerbillinae [1]) [µM] | Cell Survival (Gerbillinae [2]) [%] | Cell Survival (Gerbillinae [3]) [%]
CC(C)(C)N(O)c1ccc(C(=O)Nc2ccccn2)cc1 | 4.3 | – | –
CC(C)(C)N(O)c1ccc(C(=O)Nc2nccs2)cc1 | 1.44 | 81 | 57
O=c1c2ccccc2[se]n1-c1ccccc1 [EBSELEN] | 68.9 | 58 | 58
CC(C)(C)N(O)c1ccc(C(=O)NCc2ccccn2)cc1 | 11.1 | – | –
